This note sets out measurements from patent US20030199530A1, “New compounds derived from quinazoline” (priority 2002, published 2003).

Molecules are shown by their SMILES.

The target in one assay is T1, FTase (Rattus norvegicus, UniProt Q02293+Q04631).
T1 construct: The two enzymes FTase and GGTase-I were purified starting from rat's brain; from tissue; host or cells: rat brain
Description: FTase enzyme test (scintillation proximity assay). Particulars: rat brain FTase, biotinylated lamin B peptide, [3H]farnesyl pyrophosphate, 37° C., one hour; read-out: IC50 with respect to FTase. It is filed as biochemical. The procedure: The two enzymes FTase and GGTase-I were purified starting from rat's brain. After grinding and centrifuging, the supernatant is precipitated with 30% ammonium sulphate and the resulting supernatant is subjected to another precipitation with 50% ammonium sulphate. The pellet is then passed through a column of phenyl agarose and the fractions collected after elution with sodium chloride are evaluated for their enzyme content in accordance with the “scintillation proximity assay” method described hereinbelow. The fractions corresponding to one or other of the two enzymes are then combined and frozen at −80° C. until use.
The determination of the enzymatic activity of the FTase is carried out in 96-well plates by a radioactive scintillation proximity assay method. The acceptor substrate composed of the carboxy terminal sequence of lamin B (YRASNRSCAIM) coupled to biotin is incubated in the presence of the radiolabelled donor substrate ([^3H]farnesyl pyrophosphate), and of various concentrations of test compounds in dimethyl sulphoxide (DMSO). The reaction is initiated at 37° C. by adding FTase enzyme for a duration of one hour, and is then stopped with an appropriate buffer containing a suspension of beads impregnated with scintillant. […]
On the technique in general: SPA uses beads or plates that emit light when radiolabelled molecules are held near them.

Assay [1] deals with cells transfected with v-H-ras. Nature of the assay: Cell proliferation test (MTT) on RAT2 fibroblasts transfected with v-H-ras. To be noted: Rattus norvegicus, 96 h, RAT2 transfectant, 10% serum, four days, read-out: IC50 of inhibition of growth of cells transfected by the oncogene v-H-ras. In kind it is cell-based. As to the method:
a) The RAT2 line of rat fibroblasts and an appropriate transfectant for the insertion of the gene v-H-ras were used to test the effectiveness of the claimed products on cells.
The parental and transfected cells are cultured in 96-well plates for cell culture in the presence of medium containing 10% serum. Twenty four hours later, the test products are added to the same medium over a period of four days and the final quantity of cells is estimated indirectly by the cell viability method using 3-(4,5-dimethylthiazol-2-yl)-2,5-diphenyltetrazolium bromide (MTT).

For the compound `CC(C)(C)OC(=O)Nc1ccc(-n2c(=O)c3ccccc3n(CC(Cc3ccccc3)Cn3ccnc3)c2=O)cc1` (centres unmarked) [Example 2, tert-Butyl 4-(1-[2-benzyl-3-(1H-imidazol-1-yl)propyl]-2,4-dioxo-1,4-dihydro-3(2H)-quinazolinyl)phenylcarbamate], the IC50 on FTase came out at 19 nM; in assay [1] it was 9 nM.

What is called IC50 is the concentration needed to halve the response being measured.
